Assay results as given in ChEMBL document CHEMBL6153109, “Switching Roles─Exploring Concentration-Dependent Agonistic versus Antagonistic Behavior of Integrin Ligands” (J Med Chem, 2025).
The source made the active and inactive calls. No cut-off for these calls is given here.

What was measured:
Integrin alpha-5/beta-1 [1] = molecular target: T1, Integrin alpha-5/beta-1 (Homo sapiens, UniProt P05556+P08648); test: Agonist activity at integrin alpha5beta1 in human OV-MZ-6 cells assessed as increase in FAK expression at 1 to 1000 nM measured after 5 to 60 mins by Western blot analysis; type: cell-based; conditions: dose 1-1000 nM, time 5-60 min
M21 [2] = test: Inhibition of cell migration in human M21 cells expressing integrin alphaVbeta3 assessed as delay in wound gap closure at 1 nM measured after 9 to 72 hrs by wound scratch assay; type: functional, cell-based; conditions: time 9-72 hrs
M21 [3] = test: Inhibition of cell adhesion in human M21 cells expressing integrin alphaVbeta3 at 1 uM measured after 48 hrs by microscopic imaging analysis; type: functional, cell-based
[4] = Inhibition of cell migration in human OV-MZ-6 cells expressing integrin alpha5beta1 assessed as cell coverage at 1 uM measured within 72 hrs by wound scratch assay relative to control; type: functional; design: scale not given: the % may be the effect or the level left
OV-MZ-6 = test: Inhibition of cell migration in human OV-MZ-6 cells expressing integrin alpha5beta1 assessed as delay in wound gap closure at 1 to 1000 nM measured after 24 to 72 hrs by wound scratch assay relative to control; type: functional, cell-based; conditions: dose 1-1000 nM, time 24-72 hrs
M21 [5] = test: Inhibition of cell migration in human M21 cells expressing integrin alphaVbeta3 assessed as cell coverage at 1 uM measured within 72 hrs by wound scratch assay (reference value: 95 %); type: functional; design: scale not given: the % may be the effect or the level left
M21 [6] = test: Inhibition of cell adhesion in human M21 cells expressing integrin alphaVbeta3 at 1 nM measured after 48 hrs by microscopic imaging analysis; type: functional, cell-based
Integrin alpha-5/beta-1 [7] = molecular target: T1, Integrin alpha-5/beta-1; test: Agonist activity at integrin alpha5beta1 in human OV-MZ-6 cells assessed as fold increase in p-ERK1/2 expression at 1 uM incubated for 24 hrs by Western blot analysis; type: cell-based; conditions: filed as agonist
M21 [8] = test: Inhibition of cell migration in human M21 cells expressing integrin alphaVbeta3 assessed as delay in wound gap closure at 1 uM measured after 72 hrs by wound scratch assay; type: functional, cell-based
Integrin alpha-5/beta-1 [9] = molecular target: T1, Integrin alpha-5/beta-1; test: Agonist activity at integrin alpha5beta1 in human OV-MZ-6 cells assessed as increase in p-FAK expression at 1 nM measured after 30 to 60 mins by Western blot analysis; type: cell-based; conditions: time 30-60 min

- Activity (Integrin alpha-5/beta-1 [1]): inactive
- fold change (FC) (Integrin alpha-5/beta-1 [7]): 3.1
- Activity (Integrin alpha-5/beta-1 [9]): inactive
SMILES: CC(C)[C@H]1C(=O)N[C@@H](CCCNC(=N)N)C(=O)NCC(=O)N[C@@H](CC(=O)O)C(=O)N[C@H](Cc2ccccc2)C(=O)N1C [CILENGITIDE]
- inhibition (M21 [2]): inactive
- inhibition (M21 [3]): Active
- Activity [4]: 60%
- inhibition (OV-MZ-6): inactive
- Activity (M21 [5]): 40%
- inhibition (M21 [6]): inactive
- inhibition (M21 [8]): Active
